{"source": "patent US10058587B2", "about": "“Peptide composition for cancer treatment by inhibiting TRPV6 calcium channel activity” (priority 2008, dated 2018)", "key": {"pI": {"assay": "pI", "type": "physicochemical", "details": "measured"}, "[1]": {"assay": "Degradation rate in human plasma (HPLC)", "type": "in vitro ADME", "method": "(§1) Rat plasma was obtained from blood taken from sacrificed rats (Sprague-Dawley) and placed into heparinized glass vials to prevent clotting. Whole blood was centrifuged at 8000×g for 5 minutes to spin down the cells leaving the plasma as supernatant. Human whole blood samples from healthy humans were taken in lithium-heparinized vacuum tubes. The samples were placed into 2.0 mL microcentrifuge tubes and centrifuged at 8000×g for 5 min. The plasma was carefully separated from red blood cells and used immediately.\n(§2) Determination of degradation rate of the C-peptides was done by measuring, with the HPLC protocol, the amount of either SorC13 or SorC27 in dosed plasma samples, after time. Sample tubes (500 uL) containing 2 uL of 2 mM Pefabloc were previously prepared for sample delivery SorC13 (1.0 mg) or SorC27 (2.0 mg) were dissolved in 1.0 mL of fresh plasma (37° C.) and placed in an incubating water bath at 37° C. A sample (100 uL) was taken immediately and quenched in sample tubes containing 2 uL of 2 mM Pefabloc, mixed vigorously and immediately frozen at −80° C. This initial sample represented time zero for the run. At successive time intervals of 5 minutes, 100 uL samples were withdrawn, quenched in Pefabloc, mixed, and frozen at −80° C. until analysis.\n(§3) The rat plasma degradation rate was determined for the plasma from three different rats, while the rate of degradation in human plasma used six separate plasma samples. The data used were the means (±SEM) and were fitted to a simple one-phase exponential decay model to determine the half-life of the two peptides. This also allowed the calculation of a static degradation rate. FIG. 11 is illustrative of the rate at which SorC27 was degraded in human plasma."}, "[2]": {"assay": "Storage stability of solid and aqueous solution", "type": "physicochemical", "method": "Additionally, the peptides have greater shelf-life stability and solution stability due to the presence of fewer sensitive disulfide bonds (soricidin has 3 disulfide bonds). The peptides of the invention optionally have no disulfide bonds. An absence of disulfide bonds provides a very long shelflife during storage under minimal refrigeration or at room temperature as a solid. Additionally when the peptides of the invention with no disulfide bonds are dissolved in water, cleavage of disulfide bonds cannot occur. […] The formation of inter-peptide S—S bonds also results in precipitation of soricidin. The peptides of the invention, such as SorC13 and SorC27, are typically stable in aqueous solution at 8° C. for at least 3 weeks with no change in purity as measured by HPLC.\n“Very stable” in the above table means that there was no observable degradation of the solid peptides over 6 months. As a solution in sterile water, the peptides are typically stable for at least 3 weeks at 8° C. and at −20° C., are expected to be stable more than 1 year."}, "[3]": {"assay": "Degradation rate in rat plasma (HPLC)", "type": "in vitro ADME", "method": "as §1, §2, §3"}, "mealworm larvae [4]": {"tested_on": "mealworm larvae", "assay": "Mealworm larva paralytic bioassay", "type": "in vivo", "details": "for larvae paralyzed: 20 nmole/100 mg mass", "description": "To show this, the mealworm larva paralytic bioassay reported previously (U.S. Pat. No. 7,119,168) was used. Animals from a mealworm colony were arbitrarily selected and placed in groups (treatment and control). The animals were weighed to allow calculation of equivalent doses. The treatment was with either SorC13 or SorC27 dissolved in buffered insect Ringer's solution. The control was injection was an equivalent volume of insect Ringer's (NaCl; 10.40 g; KCl, 0.32 g; CaCl2, 0.48 g; NaHCO3, 0.32 g dissolved in 1 L of Millipore sterile water, pH 7.4). Peptide formulations were: SorC27 solutions, prepared at 1.0 mg/100 uL insect Ringer's (10 ug/uL, […], MW=2957); and SorC13, prepared at 0.5 mg/100 uL (5 ug/uL, […], MW=1566). The doses were 50 ug SorC27 per 100 mg of animal mass and 25 ug SorC13 per 100 mg of animal mass. Peptide solutions and control saline were injected dorsally at the fourth segment from the head, just under the integumen. Animals were gently ‘tail tweaked’ with forceps to trigger the escape reflex reaction and scored on time-to-effect, duration of effect and intensity of effect."}, "mealworm larvae [5]": {"tested_on": "mealworm larvae", "assay": "Mealworm larva paralytic bioassay", "type": "in vivo"}, "[6]": {"assay": "Tissue distribution of Cy5.5-labeled peptides by optical imaging", "type": "in vivo, CD1 mice", "details": "Cy5.5-tagged peptide", "description": "SorC13 and SorC27 were labeled with the near-infrared probe, Cy5.5. SorC13 was labeled at lysine-1 and lysine-8 with the infrared fluorescent probe cy5.5 through reaction with Cy5.5 NHS ester-activated process. SorC27 was labeled at the single cysteine thiol with Cy5.5 maleamide-activated reaction. The labeled peptides were purified with a combination of size exclusion chromatography and HPLC. The label, Cy5.5, fluoresces in the infra-red region after excitation with a scanning laser. The low energy laser is able to penetrate the animal to about 1 cm and, thus, by scanning prone and supine positions, the presence of the tagged peptides can be quantified in three dimensions.\nCy5.5-labeled peptides were intravenously injected into CD1 mice (4 for each compound) at 100 ug per animal in 100 uL, and animals were imaged live using an optical imaging system, Optix eXplorer (GE Healthcare Systems) at different time points (30 min, 90 min, 4 h). […] The bio-distribution of the labeled peptides in different organs and tissues were visualized and relatively quantified by optical imaging analysis. This protocol allows for visualization of the location of the labeled peptides and how the location changes over time. […] Nodes that accumulated the labeled peptides are indicated by line 1 (superfacial cervical nodes), line 4 (axillary nodes), line 5 (brachial nodes), line 8 (mesenteric nodes) and line 9 (inguinal nodes). FIGS. 8, 9 and 10 show the amounts of labeled peptides in various organs ex vivo."}, "[7]": {"assay": "Single dose acute intravenous bolus toxicity study with 5-day observation", "type": "in vivo, CD-1 mice", "method": "A single dose acute intravenous bolus injection toxicity study followed by a 5-day observation period in CD-1 mice was performed as described below. Three doses of each of SorC13 and SorC27 were used (10, 100 and 500 mg/Kg). Daily cage-side exams for 5 days with hourly exams for the first 4 hrs post injection. As part of the analysis the following assessments were made: body weights prior to dosing and at termination; all animals were necropsied (including preparation of bone marrow smears); organ weights were taken of all animals.\n(§4) After in vivo i.v. injection into CD1 mice, SorC13 caused a small spike (approximately 25%) in blood pressure in the first 15 min which disappeared by 1 hour."}, "[8]": {"assay": "Clearance route in iv mice", "details": "i.v."}, "[9]": {"assay": "Repeated dose toxicity study", "type": "in vivo, NOD/SCID mice", "details": "400 mg/kg, daily i.p. injection for 12 days", "method": "In order to investigate repeated dose toxicity, SorC27 at 400 mg/kg formulated in saline was injected (i.p.) into NOD/SCID mice every day for 12 days. The animals were observed cage-side each day and examined at the end of the experimental period."}, "[10]": {"assay": "Physiological effects after i.v. injection into CD1 mice (blood pressure, heart rate, neurological/behavioral)", "type": "in vivo", "method": "as §4"}, "human TRPV6b": {"biological_target": "T1, human TRPV6b (Homo sapiens, UniProt Q9H1D0)", "T1 construct": "expressed in transfected cells; host or cells: LnCaP (ATCC CRL-1740), human lymph node prostate cancer cells", "T1 sequence (Q9H1D0 41-765 limits assumed)": "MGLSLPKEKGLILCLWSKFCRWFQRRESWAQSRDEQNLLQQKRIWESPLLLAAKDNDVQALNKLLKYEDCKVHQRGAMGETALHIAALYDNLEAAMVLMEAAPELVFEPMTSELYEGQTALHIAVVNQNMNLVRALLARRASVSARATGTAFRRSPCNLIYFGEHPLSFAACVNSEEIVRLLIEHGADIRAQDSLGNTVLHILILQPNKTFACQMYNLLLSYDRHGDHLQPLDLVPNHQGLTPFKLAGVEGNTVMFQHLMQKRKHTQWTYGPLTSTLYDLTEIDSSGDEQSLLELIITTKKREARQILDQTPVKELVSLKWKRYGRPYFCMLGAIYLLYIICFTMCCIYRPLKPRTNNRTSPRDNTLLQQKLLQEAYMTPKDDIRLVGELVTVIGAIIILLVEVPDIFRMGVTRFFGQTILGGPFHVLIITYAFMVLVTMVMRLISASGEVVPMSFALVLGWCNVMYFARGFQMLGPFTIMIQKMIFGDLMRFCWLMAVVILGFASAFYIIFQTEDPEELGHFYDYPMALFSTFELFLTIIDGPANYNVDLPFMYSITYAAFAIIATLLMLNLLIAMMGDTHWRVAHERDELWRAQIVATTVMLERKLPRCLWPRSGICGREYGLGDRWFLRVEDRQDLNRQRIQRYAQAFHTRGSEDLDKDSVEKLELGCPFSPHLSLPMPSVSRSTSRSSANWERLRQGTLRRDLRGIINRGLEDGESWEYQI", "assay": "Whole-cell patch clamp of calcium store operated current (ISOC) through TRPV6 in transfected LnCaP cells", "type": "cell-based", "method": "An expression vector (pCAGS-IRES-hTRPV6b) (Bodding et al. 2003) containing the nucleotide code for human TRPV6b was transfected into and expressed by human lymph node prostate cancer (LnCaP, ATCC CRL-1740). Patch clamping with whole-cell current acquisition was used to measure the calcium current through this channel. Cells were treated and calcium store operated current (ISOC) was measured with either SorC13 (n=90) or SorC27 (n=30) in a closed-circuit perfusion for 3 min at each of cumulative concentrations of 0 (baseline), 100 nM, 500 nM 1 uM, 30 uM and 100 uM. Washout perfusion was done at 2 mL/min for 3 min. […] Further, both C-peptides are very strong inhibitors of calcium current through the TRPV6 channel with inhibition constants in the 100 nM range."}, "[11]": {"details": "single i.v. 10, 100 and 500 mg/kg"}}, "note": "Read-outs that look alike come from different tables or passages of the source. Bridges are numbered along the chain shown (N, C = ends). Where no end group is shown, it is not given here.", "data": [{"sequence": "DCSQDCAACSILARPAELNTETCILECEGKLSSNDTEGGLCKEFLHPSKVDLPR (disulfide 2-23, 6-27, 9-41) [Sor54, soricidin, reference compound]", "values": [{"measurement": "solubility", "setting": "Solubility (aqueous)", "value": "< 20", "unit": "mg/mL"}, {"measurement": "pI", "setting": "pI", "value": "4.3 (measured)"}, {"measurement": "binding to plasma proteins", "setting": "[1]; human plasma", "value": "binds to"}, {"measurement": "half-life", "setting": "[1]; human plasma", "value": "> 1800", "unit": "min"}, {"measurement": "Stability in aqueous solution @ −20° C.", "setting": "[2]", "value": "stable"}, {"measurement": "Stability solid @ Room Temp.", "setting": "[2]", "value": "unstable"}, {"measurement": "Stability solid @ −20° C.", "setting": "[2]", "value": "stable"}, {"measurement": "binding to plasma proteins", "setting": "[3]; rat plasma", "value": "binds to"}, {"measurement": "half-life", "setting": "[3]; rat plasma", "value": "> 1800", "unit": "min"}, {"measurement": "larvae paralyzed", "setting": "mealworm larvae [4]; time 0 min", "value": "4/4"}, {"measurement": "larvae paralyzed", "setting": "mealworm larvae [4]; time 2 min", "value": "4/4"}, {"measurement": "larvae paralyzed", "setting": "mealworm larvae [4]; time 30 min", "value": "4/4"}, {"measurement": "paralysis in the mealworm larva model", "setting": "mealworm larvae [4]; molar equivalent doses (20 nanomole/100 mg larva)", "value": "profoundly paralytic"}, {"measurement": "Physiol. effects in vivo (mealworm larvae); 5 mg/kg", "setting": "mealworm larvae [5]", "value": "Paralytic"}]}, {"sequence": "KEFLHPSKVDLPR [SorC13, KEFLHPSKVDLPR]", "values": [{"measurement": "solubility", "setting": "Solubility (aqueous); aqueous", "value": "> 200", "unit": "mg/mL"}, {"measurement": "detectable in tissues after perfusion", "setting": "[6]; 24 hours", "value": "still detectable"}, {"measurement": "tissue localization", "setting": "[6]; i.v. 100 ug", "value": "localize predominantly in lymph nodes, lung, liver and kidney"}, {"measurement": "binding to plasma proteins", "setting": "[1]; human plasma", "value": "doesn't"}, {"measurement": "half-life", "setting": "[1]; human, plasma, 37° C.", "value": 56.6, "unit": "min"}, {"measurement": "Stability in aqueous solution @ −20° C.", "setting": "[2]", "value": "Very stable"}, {"measurement": "Stability solid @ Room Temp.", "setting": "[2]", "value": "Very stable"}, {"measurement": "Stability solid @ −20° C.", "setting": "[2]", "value": "Very stable"}, {"measurement": "half-life", "setting": "[3]; Sprague-Dawley, rat, plasma, 37° C.", "value": 58, "unit": "min"}, {"measurement": "binding to plasma proteins", "setting": "[3]; rat plasma", "value": "doesn't"}, {"measurement": "Maximum Tolerated Dose in CD-1 mice by single i.v. dose", "setting": "[7]; 10, 100 and 500 mg/kg doses", "value": "No toxic effects"}, {"measurement": "adverse events over 5-day post-injection observation period", "setting": "[7]; [11]", "value": "no adverse events"}, {"measurement": "necropsy changes in major organ systems", "setting": "[7]; [11]", "value": "no significant changes in all major organ systems"}, {"measurement": "Clearance route in iv mice @ 5 mg/kg", "setting": "[8]", "value": "Rapid via kidney."}, {"measurement": "Repeated dose in NOD/SCID mice: body weight", "setting": "[9]", "value": "No loss of body"}, {"measurement": "Repeated dose in NOD/SCID mice: toxic effects", "setting": "[9]", "value": "controls, no toxic"}, {"measurement": "neurological/behavioral changes", "setting": "[10]; i.v., over 72 hours", "value": "no neurological/behavioral changes"}, {"measurement": "spike in blood pressure in the first 15 min", "setting": "[10]; i.v., disappeared by 1 hour", "value": "approximately 25%"}, {"measurement": "BP spike @ 15 min", "setting": "[10]; mice @ 5 mg/kg, stabilizes by 1 hr", "value": "15% BP spike, @"}, {"measurement": "IC50", "setting": "human TRPV6b", "value": 100, "unit": "nM"}, {"measurement": "Kd", "setting": "human TRPV6b", "value": 100, "unit": "nM"}]}]}
